Columns and labels:
hMATE2K = target: T1, hMATE2K (Homo sapiens, UniProt Q86VL8); experiment: Substrate assessment: iohexol uptake in 293 cells expressing hMATE2K vs control; assay type: in vitro ADME; conditions: 10 μM iohexol, median (95% CI)
T1 construct: expressed in transfected cells; host or cells: HEK-293 (293) cells, pEBTetD plasmid, doxycycline-induced
Description: (§1) We characterized the inhibitory potential of iohexol on major drug transporters recommended by regulatory agencies, which were previously assessed in a clinical transporter phenotyping cocktail study. These transporters include hOAT1, hOAT3, hOCT1, hOCT2, hMATE1, hMATE2K, human organic anion transporter polypeptides (hOATP)1B1, hOATP1B3, and human multidrug resistance protein (hMDR)1. Additionally, we investigated whether iohexol is a substrate for any of the renal transporters among these, including hOAT1/3, hOCT1/2, and hMATE1/2K. Cell‐based uptake assays were used to assess the activities of hOAT1/3, hOCT1/2, hMATE1/2K, and hOATP1B1/1B3. Inside‐out membrane vesicle uptake assays were used to evaluate the activity of hMDR1.
For substrate assessments, iohexol was incubated with stably transfected HEK‐293 cells expressing one of the following transporters: hOAT1, hOAT3, hOCT1, hOCT2, hMATE1, or hMATE2K, as well as with control cells lacking transporter expression. Stably transfected cell lines containing pEBTetD plasmids with wild‐type human transporter cDNAs were generated as previously described. Transporter expression was induced by adding 1 μg/mL doxycycline to the growth medium for at least 20 h. Iohexol would be considered a substrate for these transporters if: (1) the ratio of iohexol uptake in cells expressing the transporter to that in control cells was ≥ 2, and (2) a known inhibitor of the transporter reduced iohexol uptake to ≤ 50% at concentrations ≥ 10 times its inhibition constant or half‐maximal inhibitory concentration.
Uptake assays were performed using stably transfected 293 cells, with or without the expression of one of the following transporters: hOAT1, hOAT3, hOCT1, hOCT2, hMATE1, or hMATE2K, as previously described.^1
For the substrate assessment, cells were incubated with 10 µM iohexol for 10 minutes and 30 minutes for each transporter. Inhibition assays were performed using specific standard substrates for each transporter: 10 µM para-aminohippuric acid (PAH) for hOAT1, 3 µM estrone-3-sulfate (E3S) for hOAT3, 50 µM metformin for hOCT1, 5 µM metformin for hOCT2, and 3 µM 1-methyl-4-phenylpyridinium (MPP+) for hMATE1 and hMATE2K. […]
(§2) R version 4.2.1 (R Foundation for Statistical Computing, Vienna, Austria) was used for statistical evaluations and data visualization. The data analysis approach for the in vitro study was detailed by Hsin CH et al..^1 In brief, for transport assays, the initial uptake rate was calculated by normalizing the substrate concentration to both the protein concentration and the incubation time for each dish or well. The transporter-mediated uptake rate (net uptake) was determined by performing an element-wise subtraction of uptake rates from different conditions. […]

hOCT2 = target: T2, hOCT2 (Homo sapiens, UniProt O15244); experiment: Inhibition of hOCT2-mediated metformin uptake, stably transfected 293 cells; assay type: cell-based; conditions: substrate 5 µM metformin, median (95% CI)
T2 construct: expressed in transfected cells; host or cells: HEK-293 (293) cells, pEBTetD plasmid, doxycycline-induced
T2 sequence (O15244 1-555): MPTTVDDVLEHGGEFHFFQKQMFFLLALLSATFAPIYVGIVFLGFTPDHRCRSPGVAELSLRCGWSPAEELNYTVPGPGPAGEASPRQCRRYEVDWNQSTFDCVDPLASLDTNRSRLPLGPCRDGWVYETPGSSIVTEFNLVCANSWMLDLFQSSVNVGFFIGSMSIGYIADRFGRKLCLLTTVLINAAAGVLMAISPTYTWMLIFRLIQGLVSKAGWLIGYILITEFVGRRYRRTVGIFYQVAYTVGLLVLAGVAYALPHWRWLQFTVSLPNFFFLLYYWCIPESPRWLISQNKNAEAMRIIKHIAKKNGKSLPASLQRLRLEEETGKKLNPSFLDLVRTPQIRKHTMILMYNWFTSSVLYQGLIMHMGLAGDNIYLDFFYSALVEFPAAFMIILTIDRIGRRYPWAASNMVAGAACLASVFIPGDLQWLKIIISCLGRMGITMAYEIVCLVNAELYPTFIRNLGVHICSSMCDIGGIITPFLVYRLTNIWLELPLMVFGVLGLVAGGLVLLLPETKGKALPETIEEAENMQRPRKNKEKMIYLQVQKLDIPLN
Description: as §1
To determine the maximal inhibitory potential of iohexol, intracellular accumulation of a standard substrate was measured with and without the clinically relevant highest concentrations of iohexol. Control inhibitors were tested in each experiment.
In all subsequent in vitro studies, control experiments were conducted to validate the results. These included positive controls for substrates and inhibitors, as well as cells either without transporter expression or transfected with an empty vector, and control vesicles. Each condition, including cells or vesicles with the transporter and their respective controls, was analyzed in at least three replicates. For detailed information on materials, methods, and data analysis techniques used, refer to the Supporting Information. […]
as §2

T1 sequence (Q86VL8 1-566 isoform Q86VL8-3): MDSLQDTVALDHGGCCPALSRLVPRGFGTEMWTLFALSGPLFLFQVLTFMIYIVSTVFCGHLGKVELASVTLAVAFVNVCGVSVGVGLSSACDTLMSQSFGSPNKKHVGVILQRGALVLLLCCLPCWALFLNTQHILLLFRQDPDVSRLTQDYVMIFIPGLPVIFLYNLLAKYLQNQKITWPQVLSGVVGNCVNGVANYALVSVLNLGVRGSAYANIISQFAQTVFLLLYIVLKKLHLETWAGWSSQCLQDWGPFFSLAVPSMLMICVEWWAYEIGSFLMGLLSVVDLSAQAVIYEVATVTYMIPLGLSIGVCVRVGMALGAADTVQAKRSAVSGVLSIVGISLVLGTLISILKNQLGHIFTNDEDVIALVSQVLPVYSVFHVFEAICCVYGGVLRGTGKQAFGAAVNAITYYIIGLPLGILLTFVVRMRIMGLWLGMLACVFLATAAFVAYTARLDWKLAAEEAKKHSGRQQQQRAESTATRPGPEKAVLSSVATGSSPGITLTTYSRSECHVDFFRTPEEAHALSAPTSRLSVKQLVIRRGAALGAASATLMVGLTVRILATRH

CC(=O)N(CC(O)CO)c1c(I)c(C(=O)NCC(O)CO)c(I)c(C(=O)NCC(O)CO)c1I (stereo not shown) [iohexol]
Differences in intracellular accumulation (expression on minus off) (hMATE2K; 10 minutes): -0.36 (-1.1 to 0.24) pmol/mg protein | Uptake ratio (transporter-expressing vs non-expressing cells) (hMATE2K; 10 minutes): 0.95 (0.81 to 1.1) | Differences in intracellular accumulation (expression on minus off) (hMATE2K; 30 minutes): 0.62 (-0.38 to 1.5) pmol/mg protein | Uptake ratio (transporter-expressing vs non-expressing cells) (hMATE2K; 30 minutes): 1.1 (0.93 to 1.4) | Inhibitory effect (% reduction of specific activity) (hOCT2; 20 mM iohexol): no notable inhibitory effects | inhibition at 1000 µM (hOCT2; HEK293, 1 mM iohexol, read-out: Inhibitory effect (% reduction of specific activity)): -13% | inhibition at 20000 µM (hOCT2; HEK293, 20 mM iohexol, read-out: Inhibitory effect (% reduction of specific activity)): -23%

Source: PMC11788587, “Validating Low‐Dose Iohexol as a Marker for Glomerular Filtration Rate by In Vitro and In Vivo Studies” (Clinical and Translational Science, 2025)
